Test results taken from US20160237067A1, “SUBSTITUTED PHENYLALANINE DERIVATIVES” (BAYER PHARMA AKTIENGESELLSCHAFT, priority 2013, published 2016).
pIC50: −log10 of the molar value. Where a name gives a salt, the structure may show the parent alone.

Key:
human and animal plasma = assay: Determination of anticoagulatory activity: activated partial thromboplastin time (aPTT) in plasma; format: biochemical; details: C.K. Prest kit, 37° C., 3 minutes incubation, plasma species of Table B not stated
Description: The anticoagulatory activity of the test substances is determined in vitro in human and animal plasma (for example mouse, rat, rabbit, pig and dog plasma). To this end, blood is drawn off in a mixing ratio of sodium citrate/blood of 1:9 using a 0.11 molar sodium citrate solution as receiver. Immediately after the blood has been drawn off, it is mixed thoroughly and centrifuged at about 4000 g for 15 minutes. The supernatant is pipetted off.
The activated partial thromboplastin time (aPTT) is determined in the presence of varying concentrations of test substance or the corresponding solvent using a commercial test kit (C.K. Prest from Diagnostica Stago). The test compounds are incubated with the plasma and the PTT reagent (cephalin, kaolin) at 37° C. for 3 minutes. Coagulation is then started by addition of a 25 mM aqueous calcium chloride solution, and the time when coagulation occurs is determined. The concentration of test substance which brings about a 1.5-fold extension of the aPTT is determined Activity data from this test are listed in Table B below: […]

human factor XIa = target: T1, human factor XIa (Homo sapiens, UniProt P03951); assay: Measurement of FXIa inhibition (fluorogenic peptide substrate Boc-Glu(OBzl)-Ala-Arg-AMC); format: biochemical; details: factor XIa from Kordia 0.45 nM; 15 min preincubation; 30 min at 22° C.
T1 construct: purchased Kordia
T1 sequence (P03951 388-625 limits assumed): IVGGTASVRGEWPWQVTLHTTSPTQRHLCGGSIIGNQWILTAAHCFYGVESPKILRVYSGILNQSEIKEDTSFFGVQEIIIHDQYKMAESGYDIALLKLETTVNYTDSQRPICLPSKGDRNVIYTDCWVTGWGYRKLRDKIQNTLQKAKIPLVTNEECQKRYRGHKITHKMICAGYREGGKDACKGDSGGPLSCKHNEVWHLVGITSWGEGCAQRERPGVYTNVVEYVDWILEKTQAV
T1 sequence (P03951 19-387 partner limits assumed): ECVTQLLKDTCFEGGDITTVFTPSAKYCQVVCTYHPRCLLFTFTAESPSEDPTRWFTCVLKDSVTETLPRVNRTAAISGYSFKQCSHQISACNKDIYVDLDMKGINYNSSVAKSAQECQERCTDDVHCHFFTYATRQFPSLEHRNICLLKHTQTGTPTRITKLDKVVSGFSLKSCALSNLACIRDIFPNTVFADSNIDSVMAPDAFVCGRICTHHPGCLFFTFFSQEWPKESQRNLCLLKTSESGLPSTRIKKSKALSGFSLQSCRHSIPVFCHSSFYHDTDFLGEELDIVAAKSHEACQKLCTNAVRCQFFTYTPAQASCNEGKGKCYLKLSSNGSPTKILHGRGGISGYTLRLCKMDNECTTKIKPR
Description: The factor XIa inhibition of the substances according to the invention is determined using a biochemical test system which utilizes the reaction of a peptidic factor XIa substrate to determine the enzymatic activity of human factor XIa. Here, factor XIa cleaves from the peptic factor XIa substrate the C-terminal aminomethylcoumarin (AMC), the fluorescence of which is measured. The determinations are carried out in microtitre plates.
Test substances are dissolved in dimethyl sulphoxide and serially diluted in dimethyl sulphoxide (3000 μM to 0.0078 μM; resulting final concentrations in the test: 50 μM to 0.00013 μM). In each case 1 μl of the diluted substance solutions is placed into the wells of white microtitre plates from Greiner (384 wells). Subsequently, the following are added successively: 20 μl of assay buffer (50 mmol/l Tris buffer pH 7.4; 100 mmol/l sodium chloride; 5 mmol/l calcium chloride; 0.1% bovine serum albumin) and 20 μl of factor XIa from Kordia (0.45 nM in assay buffer). After 15 min of incubation, the enzyme reaction is started by addition of 20 μl of the factor XIa substrate Boc-Glu(OBzl)-Ala-Arg-AMC dissolved in assay buffer (10 μM in assay buffer) from Bachem, the mixture is incubated at room temperature (22° C.) for 30 min and fluorescence is then measured (excitation: 360 nm, emission: 460 nm). The measured emissions of the test batches with test substance are compared to those of control batches without test substance (only dimethyl sulphoxide instead of test substance in dimethyl sulphoxide), and IC50 values are calculated from the concentration/activity relationships.

With `Cc1ccc(S(=O)(=O)N(C)C)cc1-c1ccc(C[C@H](NC(=O)[C@H]2CC[C@H](CN)CC2)C(=O)Nc2ccc(-c3nnn[nH]3)cc2)cc1` [Example 1, trans-4-(Aminomethyl)-N-[(2S)-3-[5′-(dimethylsulphamoyl)-2′-methylbiphenyl-4-yl]-1-oxo-1-{[4-(1H-tetrazol-5-yl)phenyl]amino}propan-2-yl]cyclohexanecarboxamide hydrochloride] the “aPTT (concentration of test substance which brings about a 1.5-fold extension of the aPTT)” value (human and animal plasma) was 0.16 µmol/L and the pIC50 (human factor XIa) was 9.30.

`Cc1ccc(S(=O)(=O)N2CCOCC2)cc1-c1ccc(C[C@H](NC(=O)[C@H]2CC[C@H](CN)CC2)C(=O)Nc2ccc(-c3nnn[nH]3)cc2)cc1` [Example 2, trans-4-(Aminomethyl)-N-[(2S)-3-[2′-methyl-5′-(morpholin-4-ylsulphonyl)biphenyl-4-yl]-1-oxo-1-{[4-(1H-tetrazol-5-yl)phenyl]amino}propan-2-yl]cyclohexanecarboxamide hydrochloride] was tested, and the “aPTT (concentration of test substance which brings about a 1.5-fold extension of the aPTT)” value (human and animal plasma) was 0.22 µmol/L and the pIC50 (human factor XIa) was 10.00.

With `Cc1ccc(S(=O)(=O)N(C)C)cc1-c1ccc(C[C@H](NC(=O)[C@H]2CC[C@H](CN)CC2)C(=O)Nc2ccc(-c3nnc(Cl)[nH]3)cc2)cc1` [Example 3, trans-4-(Aminomethyl)-N-{(2S)-1-{[4-(5-chloro-4H-1,2,4-triazol-3-yl)phenyl]amino}-3-[5′-(dimethylsulphamoyl)-2′-methylbiphenyl-4-yl]-1-oxopropan-2-yl}cyclohexanecarboxamide hydrochloride] the “aPTT (concentration of test substance which brings about a 1.5-fold extension of the aPTT)” value (human and animal plasma) was 0.19 µmol/L and the pIC50 (human factor XIa) was 8.55.

In the case of `NC[C@H]1CC[C@H](C(=O)N[C@@H](Cc2ccc(-c3cccc(S(N)(=O)=O)c3)cc2)C(=O)Nc2ccc(-c3nnn[nH]3)cc2)CC1` [Example 4, trans-4-(Aminomethyl)-N-[(2S)-1-oxo-3-(3′-sulphamoylbiphenyl-4-yl)-1-{[4-(1H-tetrazol-5-yl)phenyl]amino}propan-2-yl]cyclohexanecarboxamide hydrochloride], the “aPTT (concentration of test substance which brings about a 1.5-fold extension of the aPTT)” value (human and animal plasma) was 0.16 µmol/L and the pIC50 (human factor XIa) was 8.51.

In the case of `CN1CCN(C(=O)c2cccc(-c3ccc(C[C@H](NC(=O)[C@H]4CC[C@H](CN)CC4)C(=O)Nc4ccc(-c5nnn[nH]5)cc4)cc3)c2)CC1` [Example 5, trans-4-(Aminomethyl)-N-[(2S)-3-{3′-[(4-methylpiperazin-1-yl)carbonyl]biphenyl-4-yl}-1-oxo-1-{[4-(1H-tetrazol-5-yl)phenyl]amino}propan-2-yl]cyclohexanecarboxamide hydrochloride], the “aPTT (concentration of test substance which brings about a 1.5-fold extension of the aPTT)” value (human and animal plasma) was 0.37 µmol/L and the pIC50 (human factor XIa) was 7.96.

`NC[C@H]1CC[C@H](C(=O)N[C@@H](Cc2ccc(-c3cccc(OCCN4CCOCC4)c3)cc2)C(=O)Nc2ccc(-c3nn[nH]n3)cc2)CC1` [Example 6, trans-4-(Aminomethyl)-N-[(2S)-3-{3′-[2-(morpholin-4-yl)ethoxy]biphenyl-4-yl}-1-oxo-1-{[4-(2H-tetrazol-5-yl)phenyl]amino}propan-2-yl]cyclohexanecarboxamide hydrochloride] was tested, and the “aPTT (concentration of test substance which brings about a 1.5-fold extension of the aPTT)” value (human and animal plasma) was 0.54 µmol/L and the pIC50 (human factor XIa) was 7.85.

With `Cc1ccc(S(=O)(=O)N2CCCC2)cc1-c1ccc(C[C@H](NC(=O)[C@H]2CC[C@H](CN)CC2)C(=O)Nc2ccc3[nH]c(=O)[nH]c3c2)cc1` [Example 7, trans-4-(Aminomethyl)-N-{(2S)-3-[2′-methyl-5′-(pyrrolidin-1-ylsulphonyl)biphenyl-4-yl]-1-oxo-1-[(2-oxo-2,3-dihydro-1H-benzimidazol-5-yl)amino]propan-2-yl}cyclohexanecarboxamide hydrochloride] the “aPTT (concentration of test substance which brings about a 1.5-fold extension of the aPTT)” value (human and animal plasma) was 0.39 µmol/L and the pIC50 (human factor XIa) was 7.96.

In the case of `CCOC(=O)c1cccc(-c2ccc(C[C@H](NC(=O)[C@H]3CC[C@H](CN)CC3)C(=O)Nc3ccc(-c4nn[nH]n4)cc3)cc2)c1F` [Example 8, Ethyl 4′-[(2S)-2-({[trans-4-(aminomethyl)cyclohexyl]carbonyl}amino)-3-oxo-3-{[4-(2H-tetrazol-5-yl)phenyl]amino}propyl]-2-fluorobiphenyl-3-carboxylate hydrochloride], the “aPTT (concentration of test substance which brings about a 1.5-fold extension of the aPTT)” value (human and animal plasma) was 0.51 µmol/L and the pIC50 (human factor XIa) was 8.16.

With `Cc1ccc(C(=O)NC2CCNCC2)cc1-c1ccc(C[C@H](NC(=O)[C@H]2CC[C@H](CN)CC2)C(=O)Nc2ccc(-c3nn[nH]n3)cc2)cc1` [Example 9, hydrochloride] the “aPTT (concentration of test substance which brings about a 1.5-fold extension of the aPTT)” value (human and animal plasma) was 0.08 µmol/L and the pIC50 (human factor XIa) was 8.13.

In the case of `CCN(CC)CCNC(=O)c1ccc(C)c(-c2ccc(C[C@H](NC(=O)[C@H]3CC[C@H](CN)CC3)C(=O)Nc3ccc(-c4nn[nH]n4)cc3)cc2)c1` [Example 10, 4′-[(2S)-2-({[trans-4-(Aminomethyl)cyclohexyl]carbonyl}amino)-3-oxo-3-{[4-(2H-tetrazol-5-yl)phenyl]amino}propyl]-N-[2-(diethylamino)ethyl]-6-methylbiphenyl-3-carboxamide hydrochloride], the “aPTT (concentration of test substance which brings about a 1.5-fold extension of the aPTT)” value (human and animal plasma) was 0.38 µmol/L and the pIC50 (human factor XIa) was 8.10.

For `Cc1ccc(C(=O)N[C@@H]2CCNC2)cc1-c1ccc(C[C@H](NC(=O)[C@H]2CC[C@H](CN)CC2)C(=O)Nc2ccc(-c3nn[nH]n3)cc2)cc1` [Example 11, 4′-[(2S)-2-({[trans-4-(Aminomethyl)cyclohexyl]carbonyl}amino)-3-oxo-3-{[4-(2H-tetrazol-5-yl)phenyl]amino}propyl]-6-methyl-N-[(3R)-pyrrolidin-3-yl]biphenyl-3-carboxamide hydrochloride], the “aPTT (concentration of test substance which brings about a 1.5-fold extension of the aPTT)” value (human and animal plasma) was 0.26 µmol/L and the pIC50 (human factor XIa) was 8.16.

In the case of `Cc1ccc(C(=O)N2CCNCC2)cc1-c1ccc(C[C@H](NC(=O)[C@H]2CC[C@H](CN)CC2)C(=O)Nc2ccc(-c3nn[nH]n3)cc2)cc1` [Example 12, trans-4-(Aminomethyl)-N-[(2S)-3-[2′-methyl-5′-(piperazin-1-ylcarbonyl)biphenyl-4-yl]-1-oxo-1-{[4-(2H-tetrazol-5-yl)phenyl]amino}propan-2-yl]cyclohexanecarboxamide hydrochloride], the “aPTT (concentration of test substance which brings about a 1.5-fold extension of the aPTT)” value (human and animal plasma) was 0.49 µmol/L and the pIC50 (human factor XIa) was 8.09.

With `NC[C@H]1CC[C@H](C(=O)N[C@@H](Cc2ccc(-c3cccc(C(=O)NC4CCNCC4)c3)cc2)C(=O)Nc2ccc(-c3nn[nH]n3)cc2)CC1` [Example 13, 4′-[(2S)-2-({[trans-4-(Aminomethyl)cyclohexyl]carbonyl}amino)-3-oxo-3-{[4-(2H-tetrazol-5-yl)phenyl]amino}propyl]-N-(piperidin-4-yl)biphenyl-3-carboxamide hydrochloride] the “aPTT (concentration of test substance which brings about a 1.5-fold extension of the aPTT)” value (human and animal plasma) was 0.28 µmol/L and the pIC50 (human factor XIa) was 7.77.

`CCN(CC)CCNC(=O)c1cccc(-c2ccc(C[C@H](NC(=O)[C@H]3CC[C@H](CN)CC3)C(=O)Nc3ccc(-c4nn[nH]n4)cc3)cc2)c1` [Example 14, 4′-[(2S)-2-({[trans-4-(Aminomethyl)cyclohexyl]carbonyl}amino)-3-oxo-3-{[4-(2H-tetrazol-5-yl)phenyl]amino}propyl]-N-[2-(diethylamino)ethyl]biphenyl-3-carboxamide hydrochloride] was tested, and the “aPTT (concentration of test substance which brings about a 1.5-fold extension of the aPTT)” value (human and animal plasma) was 0.35 µmol/L and the pIC50 (human factor XIa) was 7.82.

`Cc1cc(C)c(-c2ccc(C[C@H](NC(=O)[C@H]3CC[C@H](CN)CC3)C(=O)Nc3ccc(-c4nn[nH]n4)cc3)cc2)cc1C(=O)N(C)C` [Example 39, 4′-[(2S)-2-({[trans-4-(Aminomethyl)cyclohexyl]carbonyl}amino)-3-oxo-3-{[4-(2H-tetrazol-5-yl)phenyl]amino}propyl]-N,N,4,6-tetramethylbiphenyl-3-carboxamide hydrochloride] gave a pIC50 (human factor XIa) of 8.48.

Compound `CNC(=O)c1ccc(C)c(-c2ccc(C[C@H](NC(=O)[C@H]3CC[C@H](CN)CC3)C(=O)Nc3ccc(-c4nnc(C(F)(F)C(F)(F)C(=O)O)[nH]4)cc3)cc2)c1` [Example 41, 3-{5-[4-({(2S)-2-({[trans-4-(Aminomethyl)cyclohexyl]carbonyl}amino)-3-[2′-methyl-5′-(methylcarbamoyl)biphenyl-4-yl]propanoyl}amino)phenyl]-4H-1,2,4-triazol-3-yl}-2,2,3,3-tetrafluoropropanoic acid hydrochloride] has a pIC50 (human factor XIa) of 8.55.
